# Assay results: ChEMBL document CHEMBL1138499, “Anti-AIDS agents. 78. Design, synthesis, metabolic stability assessment, and antiviral evaluation of novel betulinic acid derivatives as potent anti-human immunodeficiency virus (HIV) agents” (J Med Chem, 2009); call rule not given here
# Key:
# [1] = Metabolic stability in human liver microsomes assessed as drug remaining at 1 mg/mL after 5 mins by HPLC; assay type: ADME, Microsome; conditions: read-out: Stability
# [2] = Metabolic stability in human liver microsomes assessed as drug remaining at 1 mg/mL after 120 mins by HPLC; assay type: ADME, Microsome; conditions: read-out: Stability
# MT2 = conditions: human
# Description: Cytotoxicity against human MT2 cells by XTT assay
# [3] = Metabolic stability in human liver microsomes assessed as drug remaining at 1 mg/mL after 15 mins by HPLC; assay type: ADME, Microsome; conditions: read-out: Stability
# [4] = Therapeutic index, ratio of CC50 for human MT2 cells to EC50 for HIV1 3B; assay type: cell-based; conditions: read-out: TI
# [5] = Metabolic stability in human liver microsomes assessed as drug remaining at 1 mg/mL after 60 mins by HPLC; assay type: ADME, Microsome; conditions: read-out: Stability
# [6] = Metabolic stability in human liver microsomes assessed as drug remaining at 1 mg/mL after 30 mins by HPLC; assay type: ADME, Microsome; conditions: read-out: Stability
# [7] = tested on: Human immunodeficiency virus 1; experiment: Antiviral activity against HIV1 3B infected in human MT2 cells assessed as p24 antigen level after 4 days by ELISA; assay type: functional, organism-based; conditions: Human immunodeficiency virus 1, 3B, MT2, 96 h
# MT4 = experiment: Cytotoxicity against human MT4 cells by XTT assay; assay type: cell-based
# [8] = tested on: Human immunodeficiency virus 1; experiment: Antiviral activity against HIV1 NL4-3 infected in human MT4 cells assessed as p24 antigen level after 4 days by ELISA; assay type: functional, organism-based; conditions: Human immunodeficiency virus 1, NL4-3, MT4, 96 h
# [9] = tested on: Human immunodeficiency virus 1; experiment: Antiviral activity against HIV1 3B infected in human MT2 cells assessed as p24 antigen level at their respective CC50 concentration after 4 days by ELISA; assay type: functional, organism-based
# [10] = Therapeutic index, ratio of CC50 for human MT4 cells to EC50 for HIV1 NL4-3; assay type: cell-based; conditions: read-out: TI
compound,measurement,setting,value
C=C(C)[C@@H]1CC[C@]2(C(=O)NCCCCCCCC(=O)O)CC[C@]3(C)[C@H](CC[C@@H]4[C@@]5(C)CC[C@H](O)C(C)(C)[C@@H]5CC[C@]43C)[C@@H]12,"remaining at 5 min, 1 mg/mL",[1],93.4%
same,"remaining at 2 h, 1 mg/mL",[2],7.9%
same,CC50,MT2,33.4 µM
same,"remaining at 0.25 h, 1 mg/mL",[3],70.7%
same,selectivity ratio,[4],10.1
same,"remaining at 1 h, 1 mg/mL",[5],40.1%
same,"remaining at 0.5 h, 1 mg/mL",[6],61.9%
same,EC50,[7],3.3 µM
C=C(C)[C@@H]1CC[C@]2(C(=O)NCCCCCCCC(=O)N[C@@H](CC(C)C)[C@H](O)CC(=O)O)CC[C@]3(C)[C@H](CC[C@@H]4[C@@]5(C)CC[C@H](O)C(C)(C)[C@@H]5CC[C@]43C)[C@@H]12,CC50,MT4,> 10 µM
same,EC50,[8],0.089 µM
C=C(C)[C@@H]1CC[C@]2(C(=O)N[C@@H](CC(C)C)C(=O)O)CC[C@]3(C)[C@H](CC[C@@H]4[C@@]5(C)CC[C@H](O)C(C)(C)[C@@H]5CC[C@]43C)[C@@H]12,CC50,MT2,29.8 µM
same,EC50,[9],Not Active
C=C(C)[C@@H]1CC[C@]2(C(=O)N3CCC(CCCC(=O)N4CCOCC4)CC3)CC[C@]3(C)[C@H](CC[C@@H]4[C@@]5(C)CC[C@H](OC(=O)CC(C)(C)C(=O)O)C(C)(C)[C@@H]5CC[C@]43C)[C@@H]12,CC50,MT4,8.8 µM
same,CC50,MT2,19.2 µM
same,selectivity ratio,[10],121
same,EC50,[8],0.07 µM
same,selectivity ratio,[4],1750
same,EC50,[7],0.011 µM
C=C(CBr)[C@@H]1CC[C@]2(C(=O)N[C@@H](CC(C)C)C(=O)O)CC[C@]3(C)[C@H](CC[C@@H]4[C@@]5(C)CC[C@H](O)C(C)(C)[C@@H]5CC[C@]43C)[C@@H]12,CC50,MT2,26.8 µM
same,EC50,[9],Not Active
C=C(CBr)[C@@H]1CC[C@]2(C(=O)N[C@@H](CC(C)C)C(=O)O)CC[C@]3(C)[C@H](CC[C@@H]4[C@@]5(C)CC[C@H](OC(=O)CC(C)(C)C(=O)O)C(C)(C)[C@@H]5CC[C@]43C)[C@@H]12,CC50,MT2,33.2 µM
same,selectivity ratio,[4],3020
same,EC50,[7],0.011 µM
C=C(COCCC)[C@@H]1CC[C@]2(C(=O)N[C@@H](CC(C)C)C(=O)O)CC[C@]3(C)[C@H](CC[C@@H]4[C@@]5(C)CC[C@H](O)C(C)(C)[C@@H]5CC[C@]43C)[C@@H]12,CC50,MT2,25.3 µM
same,EC50,[9],Not Active
C=C(COCCN1CCOCC1)[C@@H]1CC[C@]2(C(=O)NCCCCCCCC(=O)NC)CC[C@]3(C)[C@H](CC[C@@H]4[C@@]5(C)CC[C@H](O)C(C)(C)[C@@H]5CC[C@]43C)[C@@H]12,CC50,MT4,> 10 µM
same,CC50,MT2,22.3 µM
same,selectivity ratio,[10],> 138
same,EC50,[8],0.09 µM
same,selectivity ratio,[4],250
same,EC50,[7],0.09 µM
C=C(C)[C@@H]1CC[C@]2(C(=O)N[C@@H](CC(C)C)C(=O)O)CC[C@]3(C)[C@H](CC[C@@H]4[C@@]5(C)CC[C@H](NC(=O)CC(C)(C)C(=O)O)C(C)(C)[C@@H]5CC[C@]43C)[C@@H]12,CC50,MT2,35.9 µM
same,selectivity ratio,[4],2.7
same,EC50,[7],13.2 µM
C=C(CBr)[C@@H]1CC[C@]2(C(=O)NCCCCCCCC(=O)O)CC[C@]3(C)[C@H](CC[C@@H]4[C@@]5(C)CC[C@H](O)C(C)(C)[C@@H]5CC[C@]43C)[C@@H]12,CC50,MT2,36.9 µM
same,selectivity ratio,[4],16.1
same,EC50,[7],2.3 µM
C=C(C)[C@@H]1CC[C@]2(C(=O)N3CCC(CCCC(=O)NC)CC3)CC[C@]3(C)[C@H](CC[C@@H]4[C@@]5(C)CC[C@H](OC(=O)CC(C)(C)C(=O)O)C(C)(C)[C@@H]5CC[C@]43C)[C@@H]12,CC50,MT4,> 10 µM
same,CC50,MT2,33.3 µM
same,EC50,[8],0.24 µM
same,selectivity ratio,[4],497
same,EC50,[7],0.067 µM
C=C(C)[C@@H]1CC[C@]2(C(=O)N3CCC(CCCC(=O)NCCN4CCOCC4)CC3)CC[C@]3(C)[C@H](CC[C@@H]4[C@@]5(C)CC[C@H](OC(=O)CC(C)(C)C(=O)O)C(C)(C)[C@@H]5CC[C@]43C)[C@@H]12,CC50,MT4,8.5 µM
same,CC50,MT2,17.3 µM
same,selectivity ratio,[10],284
same,EC50,[8],0.035 µM
same,selectivity ratio,[4],2470
same,EC50,[7],0.007 µM
C=C(C)[C@@H]1CC[C@]2(C(=O)N3CCC(CCCC(=O)O)CC3)CC[C@]3(C)[C@H](CC[C@@H]4[C@@]5(C)CC[C@H](O)C(C)(C)[C@@H]5CC[C@]43C)[C@@H]12,"remaining at 5 min, 1 mg/mL",[1],102%
same,"remaining at 2 h, 1 mg/mL",[2],53.8%
same,CC50,MT2,41 µM
same,"remaining at 0.25 h, 1 mg/mL",[3],97.6%
same,selectivity ratio,[4],1.9
same,"remaining at 1 h, 1 mg/mL",[5],62.7%
same,"remaining at 0.5 h, 1 mg/mL",[6],81.4%
same,EC50,[7],21.7 µM
C=C(COCCc1ccc(F)cc1)[C@@H]1CC[C@]2(C(=O)N[C@@H](CC(C)C)C(=O)O)CC[C@]3(C)[C@H](CC[C@@H]4[C@@]5(C)CC[C@H](O)C(C)(C)[C@@H]5CC[C@]43C)[C@@H]12,CC50,MT2,24.4 µM
same,EC50,[9],Not Active
C=C(C)[C@@H]1CC[C@]2(C(=O)N3CCC(CCCC(=O)O)CC3)CC[C@]3(C)[C@H](CC[C@@H]4[C@@]5(C)CC[C@H](OC(=O)CC(C)(C)C(=O)O)C(C)(C)[C@@H]5CC[C@]43C)[C@@H]12,CC50,MT2,20.8 µM
same,selectivity ratio,[4],1390
same,EC50,[7],0.015 µM
C=C(COCCc1ccc(Cl)cc1)[C@@H]1CC[C@]2(C(=O)N[C@@H](CC(C)C)C(=O)O)CC[C@]3(C)[C@H](CC[C@@H]4[C@@]5(C)CC[C@H](O)C(C)(C)[C@@H]5CC[C@]43C)[C@@H]12,CC50,MT2,34.6 µM
same,selectivity ratio,[4],1.2
same,EC50,[7],27.8 µM
C=C(COCCN1CCOCC1)[C@@H]1CC[C@]2(C(=O)N[C@@H](CC(C)C)C(=O)O)CC[C@]3(C)[C@H](CC[C@@H]4[C@@]5(C)CC[C@H](O)C(C)(C)[C@@H]5CC[C@]43C)[C@@H]12,CC50,MT2,35.8 µM
same,selectivity ratio,[4],1.4
same,EC50,[7],26.6 µM
C=C(CON1CCOCC1)[C@@H]1CC[C@]2(C(=O)N[C@@H](CC(C)C)C(=O)O)CC[C@]3(C)[C@H](CC[C@@H]4[C@@]5(C)CC[C@H](O)C(C)(C)[C@@H]5CC[C@]43C)[C@@H]12,CC50,MT2,27.5 µM
same,EC50,[9],Not Active
C=C(COCCc1ccccc1)[C@@H]1CC[C@]2(C(=O)N[C@@H](CC(C)C)C(=O)O)CC[C@]3(C)[C@H](CC[C@@H]4[C@@]5(C)CC[C@H](O)C(C)(C)[C@@H]5CC[C@]43C)[C@@H]12,CC50,MT2,21.7 µM
same,EC50,[9],Not Active
C=C(CO)[C@@H]1CC[C@]2(C(=O)NCCCCCCCC(=O)O)CC[C@]3(C)[C@H](CC[C@@H]4[C@@]5(C)CC[C@H](O)C(C)(C)[C@@H]5CC[C@]43C)[C@@H]12,CC50,MT2,40.7 µM
same,selectivity ratio,[4],2.8
same,EC50,[7],14.8 µM
C=C(COCCc1ccc(OC)cc1)[C@@H]1CC[C@]2(C(=O)N[C@@H](CC(C)C)C(=O)O)CC[C@]3(C)[C@H](CC[C@@H]4[C@@]5(C)CC[C@H](O)C(C)(C)[C@@H]5CC[C@]43C)[C@@H]12,CC50,MT2,16.7 µM
same,EC50,[9],Not Active
C=C(COCC)[C@@H]1CC[C@]2(C(=O)N[C@@H](CC(C)C)C(=O)O)CC[C@]3(C)[C@H](CC[C@@H]4[C@@]5(C)CC[C@H](O)C(C)(C)[C@@H]5CC[C@]43C)[C@@H]12,CC50,MT2,40.7 µM
same,EC50,[9],Not Active
C=C(COCCc1ccc(Br)cc1)[C@@H]1CC[C@]2(C(=O)N[C@@H](CC(C)C)C(=O)O)CC[C@]3(C)[C@H](CC[C@@H]4[C@@]5(C)CC[C@H](O)C(C)(C)[C@@H]5CC[C@]43C)[C@@H]12,CC50,MT2,20.8 µM
same,EC50,[9],Not Active
C=C(COCCN1CCOCC1)[C@@H]1CC[C@]2(C(=O)NCCCCCCCC(=O)O)CC[C@]3(C)[C@H](CC[C@@H]4[C@@]5(C)CC[C@H](O)C(C)(C)[C@@H]5CC[C@]43C)[C@@H]12,CC50,MT2,24.8 µM
same,selectivity ratio,[4],13.8
same,EC50,[7],1.8 µM
C=C(CO)[C@@H]1CC[C@]2(C(=O)N[C@@H](CC(C)C)C(=O)O)CC[C@]3(C)[C@H](CC[C@@H]4[C@@]5(C)CC[C@H](O)C(C)(C)[C@@H]5CC[C@]43C)[C@@H]12,CC50,MT2,30.7 µM
same,EC50,[9],Not Active
C=C(COCCCC)[C@@H]1CC[C@]2(C(=O)N[C@@H](CC(C)C)C(=O)O)CC[C@]3(C)[C@H](CC[C@@H]4[C@@]5(C)CC[C@H](O)C(C)(C)[C@@H]5CC[C@]43C)[C@@H]12,CC50,MT2,24.9 µM
same,EC50,[9],Not Active
C=C(C)[C@@H]1CC[C@]2(C(=O)N3CCC(CCCC(=O)O)CC3)CC[C@]3(C)[C@H](CC[C@@H]4[C@@]5(C)CC[C@H](OC(=O)CCC(C)(C)C(=O)O)C(C)(C)[C@@H]5CC[C@]43C)[C@@H]12,CC50,MT2,33.2 µM
same,selectivity ratio,[4],145
same,EC50,[7],0.23 µM
C=C(C)[C@@H]1CC[C@]2(C(=O)NCCCCCCCNC(C)=O)CC[C@]3(C)[C@H](CC[C@@H]4[C@@]5(C)CC[C@H](O)C(C)(C)[C@@H]5CC[C@]43C)[C@@H]12,CC50,MT4,> 10 µM
same,selectivity ratio,[10],> 150
same,EC50,[8],0.092 µM
C=C(C)[C@@H]1CC[C@]2(C(=O)N3CCC(CCCC(=O)NCCCN4CCOCC4)CC3)CC[C@]3(C)[C@H](CC[C@@H]4[C@@]5(C)CC[C@H](OC(=O)CC(C)(C)C(=O)O)C(C)(C)[C@@H]5CC[C@]43C)[C@@H]12,CC50,MT4,8.6 µM
same,CC50,MT2,18.5 µM
same,selectivity ratio,[10],246
same,EC50,[8],0.031 µM
same,selectivity ratio,[4],3090
same,EC50,[7],0.006 µM
Cc1cn([C@H]2C[C@H](N=[N+]=[N-])[C@@H](CO)O2)c(=O)[nH]c1=O [ZIDOVUDINE],CC50,MT2,1870 µM
